Assay results taken from patent US10363257B2 (ZENITH EPIGENETICS LTD., priority 2013, dated 2019).

Columns and labels:
hApoA-1 mRNA = experiment: Up-regulation of hApoA-1 mRNA transcription in Huh7 cells; type: cell-based, human; details: EC170, Huh7 cells, 48 h treatment, ApoA-I mRNA
Description: In this example, ApoA-I mRNA in tissue culture cells was quantitated to measure the transcriptional up-regulation of ApoA-I when treated with a compound of the invention.
Huh7 cells (2.5×10^5 per well) were plated in a 96-well plate using 100 μL DMEM per well, (Gibco DMEM supplemented with penicillin/streptomycin and 10% FBS), 24 h before the addition of the compound of interest. After 48 h treatment, the spent media was removed from the Huh-7 cells and placed on ice (for immediate use) or at −80° C. (for future use) with the “LDH cytotoxicity assay Kit II” from Abcam. The cells remaining in the plate were rinsed with 100 μL PBS.
Then 85 μL of cell lysis solution was added to each well and incubated for 5-10 min at room temperature, to allow for complete cell lysis and detachment. mRNA was then prepared using the “mRNA Catcher PLUS plate” from Life Technologies, according to the protocol supplied. After the last wash, as much wash buffer as possible was aspirated without allowing the wells to dry. […]
The eluted mRNA isolated was then used in a one-step real-time PCR reaction, using components of the Ultra Sense Kit together with Life Technologies primer-probe mixes. Real-time PCR data was analyzed, using the Ct values, to determine the fold induction of each unknown sample, relative to the control (that is, relative to the control for each independent DMSO concentration).

hIL-6 mRNA = experiment: Inhibition of hIL-6 mRNA transcription in LPS-stimulated U937 cells; type: cell-based; details: Homo sapiens, U-937; PMA-differentiated U937 cells, 1 h pretreatment, 1 ug/mL LPS stimulation, 3 h; read-out: IL-6 activity (Inhibition of hIL-6 mRNA Transcription)
Procedure, shortened: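 U937 cells differentiated 3 days with 60 ng/mL PMA, pretreated 1 h with compound (0.1% DMSO), then stimulated with 1 ug/mL E. coli LPS for 3 h at 37 °C. hIL-6 mRNA measured by one-step TaqMan RT-qPCR, normalized to cyclophilin. Fold expression relative to control; triplicate wells.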

MV4-11 cells = experiment: In vivo efficacy in athymic nude mouse acute myeloid leukemia xenograft model using MV4-11 cells; details: MV4-11 AML xenograft, oral, 75 mg/kg b.i.d and 120 mg/kg b.i.d
Description: MV4-11 cells (ATCC) are grown under standard cell culture conditions and (NCr) nu/nu fisol strain of female mice age 6-7 weeks are injected with 5×10^6 cells/animal in 100 μL PBS+100 μL Matrigel in the lower left abdominal flank. By approximately day 18 after MV4-11 cells injection, mice are randomized based on tumor volume (L×W×H)/2) of average ˜120 mm^3. Mice are dosed orally with compound at 75 mg/kg b.i.d and 120 mg/kg b.i.d in EA006 formulation at 10 mL/kg body weight dose volume. Tumor measurements are taken with electronic micro calipers and body weights measured on alternate days beginning from dosing period. The average tumor volumes, percent Tumor Growth Inhibition (TGI) and % change in body weights are compared relative to Vehicle control animals. The means, statistical analysis and the comparison between groups are calculated using Student's t-test in Excel.

IC50 (hIL-6 mRNA): ≤ 300 nM
SMILES: Cc1noc(C)c1-c1cc(N)c2ncn(Cc3ccccc3)c2c1 [Example Compound 7, 1-Benzyl-6-(3,5-dimethylisoxazol-4-yl)-1H-benzo[d]imidazol-4-amine]
ApoA-1 activity (hApoA-1 mRNA): +++ (EC170 value less than or equal to 0.3 μM were deemed to be highly active (+++))
In vivo activity (MV4-11 cells): Active
